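Step 1: Grow cells in 96-well plates. Step 2: Expose to compound for 48 hours at 5 concentrations. Step 3: Interpolate endpoints linearly; if unreached, use highest concentration. TGI: concentration producing complete growth inhibition.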
Legend:
Assay in all cases: inhibition of tumour cell growth, NCI panel, 48 h
M19-MEL melanoma = system: M19-MEL melanoma
KM20L2 colon = system: KM20L2 colon
U251 CNS = system: U251 CNS
786-0 renal = system: 786-0 renal
MOLT-4 leukemia = system: MOLT-4 leukemia
A498 renal = system: A498 renal
LXFL 529 NSCLC = system: LXFL 529 NSCLC
OVCAR-4 ovarian = system: OVCAR-4 ovarian
HCC-2998 colon = system: HCC-2998 colon
UACC-62 melanoma = system: UACC-62 melanoma
OVCAR-8 ovarian = system: OVCAR-8 ovarian
LOX IMVI melanoma = system: LOX IMVI melanoma
SNB-75 CNS = system: SNB-75 CNS
A549 NSCLC = system: A549 NSCLC
COLO 205 colon = system: COLO 205 colon
NCI-H23 lung = system: NCI-H23 lung
SW-620 colon = system: SW-620 colon
DMS 114 small cell lung = system: DMS 114 small cell lung
SK-OV-3 ovarian = system: SK-OV-3 ovarian
SK-MEL-28 melanoma = system: SK-MEL-28 melanoma
HOP-18 NSCLC = system: HOP-18 NSCLC
K-562 leukemia = system: K-562 leukemia
DMS 273 small cell lung = system: DMS 273 small cell lung
SNB-78 CNS = system: SNB-78 CNS
OVCAR-3 ovarian = system: OVCAR-3 ovarian
RXF-631 renal = system: RXF-631 renal
SN12C renal = system: SN12C renal
EKVX NSCLC = system: EKVX NSCLC
M14 melanoma = system: M14 melanoma
NCI-H460 lung = system: NCI-H460 lung
NCI-H226 lung = system: NCI-H226 lung
KM12 colon = system: KM12 colon
SF-539 CNS = system: SF-539 CNS
RPMI-8226 leukemia = system: RPMI-8226 leukemia
IGROV1 ovarian = system: IGROV1 ovarian
SNB-19 CNS = system: SNB-19 CNS
HOP-92 NSCLC = system: HOP-92 NSCLC
DLD-1 colon = system: DLD-1 colon
TK-10 renal = system: TK-10 renal
HT29 colon = system: HT29 colon
SF-295 CNS = system: SF-295 CNS
CCRF-CEM leukemia = system: CCRF-CEM leukemia
HCT-15 colon = system: HCT-15 colon
HCT-116 colon = system: HCT-116 colon
UO-31 renal = system: UO-31 renal
SK-MEL-5 melanoma = system: SK-MEL-5 melanoma
ACHN renal = system: ACHN renal
MALME-3M melanoma = system: MALME-3M melanoma
OVCAR-5 ovarian = system: OVCAR-5 ovarian
RXF 393 renal = system: RXF 393 renal
CAKI-1 renal = system: CAKI-1 renal
NCI-H522 lung = system: NCI-H522 lung
SF-268 CNS = system: SF-268 CNS
SK-MEL-2 melanoma = system: SK-MEL-2 melanoma
UACC-257 melanoma = system: UACC-257 melanoma

In the case of `CCCCC1=CSC(c2ccccc2)=C(c2ccccc2)S1`, the TGI (M19-MEL melanoma) is reported as greater than 100 µM, the TGI (KM20L2 colon) is reported as greater than 100 µM and the TGI (U251 CNS) is reported as greater than 100 µM. The TGI (786-0 renal) was greater than 100 µM, the TGI (MOLT-4 leukemia) was greater than 100 µM and the TGI (A498 renal) was greater than 100 µM. The TGI (LXFL 529 NSCLC) was greater than 100 µM, the TGI (OVCAR-4 ovarian) was greater than 100 µM and the TGI (HCC-2998 colon) was greater than 100 µM. It also gave a TGI (UACC-62 melanoma) greater than 100 µM, a TGI (OVCAR-8 ovarian) greater than 100 µM and a TGI (LOX IMVI melanoma) greater than 100 µM. For the same compound, the TGI (SNB-75 CNS) was greater than 100 µM, the TGI (A549 NSCLC) was greater than 100 µM and the TGI (COLO 205 colon) was greater than 100 µM. The TGI (NCI-H23 lung) was greater than 100 µM, the TGI (SW-620 colon) was greater than 100 µM and the TGI (DMS 114 small cell lung) was greater than 100 µM. For the same compound, the TGI (SK-OV-3 ovarian) was greater than 100 µM, the TGI (SK-MEL-28 melanoma) was greater than 100 µM and the TGI (HOP-18 NSCLC) was greater than 100 µM. For the same compound, the TGI (K-562 leukemia) was greater than 100 µM, the TGI (DMS 273 small cell lung) was greater than 100 µM and the TGI (SNB-78 CNS) was greater than 100 µM. The TGI (OVCAR-3 ovarian) was greater than 100 µM, the TGI (RXF-631 renal) was greater than 100 µM and the TGI (SN12C renal) was greater than 100 µM. It also gave a TGI (EKVX NSCLC) greater than 100 µM, a TGI (M14 melanoma) greater than 100 µM and a TGI (NCI-H460 lung) greater than 100 µM. For the same compound, the TGI (NCI-H226 lung) was greater than 100 µM, the TGI (KM12 colon) was greater than 100 µM and the TGI (SF-539 CNS) was greater than 100 µM. The TGI (RPMI-8226 leukemia) was greater than 100 µM, the TGI (IGROV1 ovarian) was greater than 100 µM and the TGI (SNB-19 CNS) was greater than 100 µM. For the same compound, the TGI (HOP-92 NSCLC) was 60.9 µM, the TGI (DLD-1 colon) was greater than 100 µM and the TGI (TK-10 renal) was greater than 100 µM. For the same compound, the TGI (HT29 colon) was greater than 100 µM, the TGI (SF-295 CNS) was greater than 100 µM and the TGI (CCRF-CEM leukemia) was greater than 100 µM. The TGI (HCT-15 colon) was greater than 100 µM, the TGI (HCT-116 colon) was greater than 100 µM and the TGI (UO-31 renal) was greater than 100 µM. It also gave a TGI (SK-MEL-5 melanoma) greater than 100 µM.
With `Cc1c(O)c(=O)ccn1CCN` the TGI (M19-MEL melanoma) was greater than 100 µM, the TGI (ACHN renal) was greater than 100 µM and the TGI (KM20L2 colon) was greater than 100 µM. It also gave a TGI (U251 CNS) greater than 100 µM, a TGI (MALME-3M melanoma) greater than 100 µM and a TGI (OVCAR-5 ovarian) greater than 100 µM. The TGI (786-0 renal) was greater than 100 µM, the TGI (MOLT-4 leukemia) was greater than 100 µM and the TGI (A498 renal) was greater than 100 µM. For the same compound, the TGI (LXFL 529 NSCLC) was greater than 100 µM, the TGI (OVCAR-4 ovarian) was greater than 100 µM and the TGI (HCC-2998 colon) was greater than 100 µM. It also gave a TGI (UACC-62 melanoma) greater than 100 µM, a TGI (OVCAR-8 ovarian) greater than 100 µM and a TGI (LOX IMVI melanoma) greater than 100 µM. It also gave a TGI (SNB-75 CNS) greater than 100 µM, a TGI (A549 NSCLC) greater than 100 µM and a TGI (COLO 205 colon) greater than 100 µM. For the same compound, the TGI (NCI-H23 lung) was greater than 100 µM, the TGI (SW-620 colon) was greater than 100 µM and the TGI (DMS 114 small cell lung) was greater than 100 µM. The TGI (SK-OV-3 ovarian) was greater than 100 µM, the TGI (SK-MEL-28 melanoma) was greater than 100 µM and the TGI (HOP-18 NSCLC) was greater than 100 µM. It also gave a TGI (K-562 leukemia) greater than 100 µM, a TGI (RXF 393 renal) greater than 100 µM and a TGI (CAKI-1 renal) greater than 100 µM. The TGI (DMS 273 small cell lung) was greater than 100 µM, the TGI (SNB-78 CNS) was greater than 100 µM and the TGI (RXF-631 renal) was greater than 100 µM. The TGI (NCI-H522 lung) was greater than 100 µM, the TGI (SF-268 CNS) was greater than 100 µM and the TGI (SN12C renal) was greater than 100 µM. It also gave a TGI (EKVX NSCLC) greater than 100 µM, a TGI (M14 melanoma) greater than 100 µM and a TGI (NCI-H460 lung) greater than 100 µM. For the same compound, the TGI (NCI-H226 lung) was greater than 100 µM, the TGI (KM12 colon) was greater than 100 µM and the TGI (RPMI-8226 leukemia) was greater than 100 µM. It also gave a TGI (IGROV1 ovarian) greater than 100 µM, a TGI (SNB-19 CNS) greater than 100 µM and a TGI (HOP-92 NSCLC) greater than 100 µM. The TGI (DLD-1 colon) was greater than 100 µM, the TGI (TK-10 renal) was greater than 100 µM and the TGI (HT29 colon) was greater than 100 µM. The TGI (CCRF-CEM leukemia) was greater than 100 µM, the TGI (HCT-15 colon) was greater than 100 µM and the TGI (HCT-116 colon) was greater than 100 µM. The TGI (UO-31 renal) was greater than 100 µM, the TGI (SK-MEL-2 melanoma) was greater than 100 µM and the TGI (UACC-257 melanoma) was greater than 100 µM.
